# Data: US8124566B2 (priority 2004, dated 2012)
# “And” between values parts separate entries of the source, which are not always exact repeats. Equal entries are not always repeated. Where two headings read alike, the source gives them in different places.
# Experiments:
# Assay type in all cases: cell-based
# Settings in all cases: active ingredient alone
# Botrytis cinerea = assay: Fungal growth assay, Botrytis cinerea (Example B-1 a)
# Septoria tritici = assay: Fungal growth assay, Septoria tritici (Example B-2 a)
# Pyricularia oryzae = system: Pyricularia oryzae
# Alternaria solani = assay: Fungal growth assay, Alternaria solani (Example B-4 a)
# Pyrenophora teres = assay: Fungal growth assay, Pyrenophora teres (Example B-5 a)
# Venturia inaequalis = assay: Fungal growth assay, Venturia inaequalis (Example B-6 a)
# Pythium ultimum = assay: Fungal growth assay, Pythium ultimum (Example B-7)
# Leptosphaeria nodorum = assay: Fungal growth assay, Leptosphaeria nodorum (Example B-8)
smiles,measurement,setting,value
CC(C)C1C2CCC1c1c(NC(=O)c3cn(C)nc3C(F)F)cccc12 (racemic) [Cpd Ic],Observed control in % (% Cobs),Botrytis cinerea; 0.0025 ppm [mg/L],0%
same,Observed control in % (% Cobs),Botrytis cinerea; 0.0074 ppm [mg/L],10%
same,Observed control in % (% Cobs),Botrytis cinerea; 0.0222 ppm [mg/L],23% and 18% and 12%
same,Observed control in % (% Cobs),Botrytis cinerea; 0.0667 ppm [mg/L],35% and 28%
same,Observed control in % (% Cobs),Botrytis cinerea; 0.2000 ppm [mg/L],71%
same,Observed control in % (% Cobs),Septoria tritici; 0.0001 ppm [mg/L],1%
same,Observed control in % (% Cobs),Septoria tritici; 0.0008 ppm [mg/L],13%
same,Observed control in % (% Cobs),Pyricularia oryzae; 0.0001 ppm [mg/L],2%
same,Observed control in % (% Cobs),Pyricularia oryzae; 0.0008 ppm [mg/L],3%
same,Observed control in % (% Cobs),Pyricularia oryzae; 0.0025 ppm [mg/L],13% and 6%
same,Observed control in % (% Cobs),Pyricularia oryzae; 0.0074 ppm [mg/L],33%
same,Observed control in % (% Cobs),Pyricularia oryzae; 0.0222 ppm [mg/L],59%
same,Observed control in % (% Cobs),Alternaria solani; 0.0025 ppm [mg/L],8%
same,Observed control in % (% Cobs),Alternaria solani; 0.0074 ppm [mg/L],27%
same,Observed control in % (% Cobs),Pyrenophora teres; 0.0667 ppm [mg/L],37%
same,Observed control in % (% Cobs),Pyrenophora teres; 0.2000 ppm [mg/L],55%
same,Observed control in % (% Cobs),Venturia inaequalis; 0.0222 ppm [mg/L],6% and 10%
same,Observed control in % (% Cobs),Venturia inaequalis; 0.0667 ppm [mg/L],18%
same,Observed control in % (% Cobs),Venturia inaequalis; 0.2000 ppm [mg/L],59%
same,Observed control in % (% Cobs),Pythium ultimum; 0.0667 ppm [mg/L],0%
same,Observed control in % (% Cobs),Pythium ultimum; 0.2000 ppm [mg/L],0%
same,Observed control in % (% Cobs),Pythium ultimum; 0.6000 ppm [mg/L],0%
same,Observed control in % (% Cobs),Leptosphaeria nodorum; 0.0222 ppm [mg/L],0%
same,Observed control in % (% Cobs),Leptosphaeria nodorum; 0.0667 ppm [mg/L],0%
same,Observed control in % (% Cobs),Leptosphaeria nodorum; 0.2000 ppm [mg/L],0%
Fc1ccc([C@]2(Cn3cncn3)O[C@H]2c2ccccc2Cl)cc1 (racemic) [Epoxiconazole],Observed control in % (% Cobs),Leptosphaeria nodorum; 0.0025 ppm [mg/L],9%
same,Observed control in % (% Cobs),Leptosphaeria nodorum; 0.0222 ppm [mg/L],39%
CO/C=C(/C(=O)OC)c1ccccc1Oc1cc(Oc2ccccc2C#N)ncn1 [Azoxystrobin],Observed control in % (% Cobs),Botrytis cinerea; 0.60 ppm [mg/L],7%
same,Observed control in % (% Cobs),Botrytis cinerea; 1.80 ppm [mg/L],14%
N#Cc1c(Cl)c(Cl)c(Cl)c(C#N)c1Cl [Chlorothalonil],Observed control in % (% Cobs),Pyricularia oryzae; 0.002 ppm [mg/L],0%
same,Observed control in % (% Cobs),Pyricularia oryzae; 0.007 ppm [mg/L],0%
same,Observed control in % (% Cobs),Pyricularia oryzae; 0.067 ppm [mg/L],0%
CC1CCN(c2c(-c3c(F)cc(F)cc3F)c(Cl)nc3ncnn23)CC1 [Cpd B-1],Observed control in % (% Cobs),Venturia inaequalis; 0.0008 ppm [mg/L],17%
same,Observed control in % (% Cobs),Venturia inaequalis; 0.0025 ppm [mg/L],32%
same,Observed control in % (% Cobs),Venturia inaequalis; 0.0074 ppm [mg/L],61%
C#CCOc1ccc(CCNC(=O)C(OCC#C)c2ccc(Cl)cc2)cc1OC (stereo not drawn) [Cpd F-1],Observed control in % (% Cobs),Pyrenophora teres; 5.4 ppm [mg/L],2%
same,Observed control in % (% Cobs),Pyrenophora teres; 16.2 ppm [mg/L],6%
CC(C1CC1)C(O)(Cn1cncn1)c1ccc(Cl)cc1 (stereo not drawn) [Cyproconazole],Observed control in % (% Cobs),Pyricularia oryzae; 0.022 ppm [mg/L],0%
same,Observed control in % (% Cobs),Pyricularia oryzae; 0.200 ppm [mg/L],0%
Cc1cc(C2CC2)nc(Nc2ccccc2)n1 [Cyprodinil],Observed control in % (% Cobs),Pyricularia oryzae; 0.002 ppm [mg/L],0%
same,Observed control in % (% Cobs),Pyricularia oryzae; 0.007 ppm [mg/L],0%
same,Observed control in % (% Cobs),Pyricularia oryzae; 0.067 ppm [mg/L],0%
CC1COC(Cn2cncn2)(c2ccc(Oc3ccc(Cl)cc3)cc2Cl)O1 (stereo not drawn) [Difenoconazole],Observed control in % (% Cobs),Leptosphaeria nodorum; 0.0008 ppm [mg/L],5%
same,Observed control in % (% Cobs),Leptosphaeria nodorum; 0.0025 ppm [mg/L],16%
same,Observed control in % (% Cobs),Leptosphaeria nodorum; 0.0074 ppm [mg/L],73%
CC(Cc1ccc(C(C)(C)C)cc1)CN1CCCCC1 (stereo not drawn) [Fenpropidin],Observed control in % (% Cobs),Pythium ultimum; 5.4000 ppm [mg/L],11%
same,Observed control in % (% Cobs),Pythium ultimum; 16.2000 ppm [mg/L],34%
CC(Cc1ccc(C(C)(C)C)cc1)CN1C[C@@H](C)O[C@@H](C)C1 (stereo partly drawn) [Fenpropimorph],Observed control in % (% Cobs),Venturia inaequalis; 0.0025 ppm [mg/L],0%
same,Observed control in % (% Cobs),Venturia inaequalis; 0.0222 ppm [mg/L],33%
N#Cc1c[nH]cc1-c1cccc2c1OC(F)(F)O2 [Fludioxonil],Observed control in % (% Cobs),Alternaria solani; 0.022 ppm [mg/L],1%
same,Observed control in % (% Cobs),Alternaria solani; 0.067 ppm [mg/L],24%
CO/C=C(/C(=O)OC)c1ccccc1COc1cccc(C(F)(F)F)n1 [Picoxystrobin],Observed control in % (% Cobs),Botrytis cinerea; 0.0222 ppm [mg/L],0%
same,Observed control in % (% Cobs),Botrytis cinerea; 0.0667 ppm [mg/L],6%
same,Observed control in % (% Cobs),Botrytis cinerea; 0.2000 ppm [mg/L],12%
same,Observed control in % (% Cobs),Botrytis cinerea; 0.6000 ppm [mg/L],20%
CCCC1COC(Cn2cncn2)(c2ccc(Cl)cc2Cl)O1 (stereo not drawn) [Propiconazole],Observed control in % (% Cobs),Septoria tritici; 0.007 ppm [mg/L],0%
same,Observed control in % (% Cobs),Septoria tritici; 0.067 ppm [mg/L],7%
OC(Cc1ccccc1Cl)(Cn1nc[nH]c1=S)C1(Cl)CC1 (stereo not drawn) [Prothioconazole],Observed control in % (% Cobs),Botrytis cinerea; 0.0222 ppm [mg/L],8%
same,Observed control in % (% Cobs),Botrytis cinerea; 0.0667 ppm [mg/L],17%
same,Observed control in % (% Cobs),Botrytis cinerea; 0.2000 ppm [mg/L],52%
